The conditions of series [1]: mice; background statement on previous lead; cited from earlier work.
Another series has as its target rat nNOS (Rattus norvegicus, UniProt P29476). Description: hemoglobin capture assay, purified rat nNOS. The class given is biochemical. To be noted: relative to 21.

With `Cl.Cl.Nc1ccc2ccc(CCNCCc3cccc(F)c3)cc2n1` [Compound 1], the “oral bioavailability and brain permeation” value in series [1] was “good oral bioavailability and brain permeation”.

For `Cl.Cl.Nc1ccc2ccc(COc3cccnc3)cc2n1` [Compound 11, 7-[(Pyridin-3-yloxy)methyl]quinolin-2-amine Dihydrochloride], the “fold weaker binding to nNOS than 21” value on rat nNOS is about 17 fold.

Source of the values: PMC4644118 (Journal of medicinal chemistry, 2015).
